Laboratory results: ChEMBL document CHEMBL1201862, “PubChem BioAssay data set” (2004)
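A five-concentration, 48-hour dose response in 96-well plates underlies each endpoint, interpolated linearly between surrounding concentrations. At the GI50, growth is halved.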 Activity calls are given as the source filed them. No stated cut-off is given here; in the data, active = GI50 up to about 1.1 µM and inactive = higher.

What was measured:
Assay in all cases: DTP human tumour cell line panel, 48 h
EKVX = test system: EKVX
HOP-18 = test system: HOP-18
KM-20L2 = test system: KM-20L2
M19-MEL = test system: M19-MEL
UO-31 = test system: UO-31
HCT-15 = test system: HCT-15
SNB-78 = test system: SNB-78
XF498 = test system: XF498
HOP-62 = test system: HOP-62
SNB-19 = test system: SNB-19
A498 = test system: A498
SF-295 = test system: SF-295
COLO 205 = test system: COLO 205
DLD-1 = test system: DLD-1
RXF 393 = test system: RXF 393
T47D = test system: T47D
BT-549 = test system: BT-549
PC-3 = test system: PC-3
MDA-MB-231 = test system: MDA-MB-231
MDA-MB-435 = test system: MDA-MB-435

Row | SMILES | GI50 (EKVX) | GI50 (HOP-18) | GI50 (KM-20L2) | GI50 (M19-MEL) | GI50 (UO-31) | GI50 (HCT-15) [µM] | GI50 (SNB-78) | GI50 (XF498) | GI50 (HOP-62) | GI50 (SNB-19) | GI50 (A498) | GI50 (SF-295) | GI50 (COLO 205) | GI50 (DLD-1) | GI50 (RXF 393) | GI50 (T47D) | GI50 (BT-549) | GI50 (PC-3) | GI50 (MDA-MB-231) | GI50 (MDA-MB-435)
1 | c1cc2nnsc2s1 | > 100 µM (inactive) | > 100 µM (inactive) | > 100 µM (inactive) | > 100 µM (inactive) | > 100 µM (inactive) | > 100 | > 100 µM (inactive) | > 100 µM (inactive) | > 100 µM (inactive) | > 100 µM (inactive) | > 100 µM (inactive) | > 100 µM (inactive) | 42.3 µM (inactive) | 60.4 µM (inactive) |  |  |  |  |  | 
2 | CC12C/C(=C\c3ccccc3)C(=O)C3C1CCCC32 |  | > 100 µM (inactive) | 63.1 µM (inactive) | 58.6 µM (inactive) | > 100 µM (inactive) | > 100 |  | > 100 µM (inactive) | > 100 µM (inactive) | > 100 µM (inactive) | > 100 µM (inactive) | > 100 µM (inactive) | 87.1 µM (inactive) | 79.3 µM (inactive) |  |  |  |  |  | 
3 | CCOC(=O)c1ccc(/N=N/c2cc(C(=O)OCC)ccc2O)cc1 | 20.1 µM (inactive) | > 100 µM (inactive) | > 100 µM (inactive) | > 100 µM (inactive) | > 100 µM (inactive) | > 100 |  | 2.13 µM (inactive) | > 100 µM (inactive) |  | 68.9 µM (inactive) |  | > 100 µM (inactive) | > 100 µM (inactive) | > 100 µM (inactive) |  |  |  |  | 
4 | O=C(CC1(O)C(=O)Nc2c(Cl)cc(Cl)cc21)c1cccc2ccccc12 (stereo unspecified) | 16 µM (inactive) | 17.9 µM (inactive) | 18.9 µM (inactive) |  |  | 16.5 | 26.7 µM (inactive) | 20.4 µM (inactive) | 16.5 µM (inactive) | 14.1 µM (inactive) | 21.5 µM (inactive) | 15.7 µM (inactive) | 17 µM (inactive) | 15.8 µM (inactive) | 20.6 µM (inactive) |  |  |  |  | 
5 | O=c1c2cc(Br)cc(Br)c2nc(CCCl)n1CCO | 73.8 µM (inactive) |  | > 100 µM (inactive) | 94.8 µM (inactive) | 34.7 µM (inactive) |  | > 100 µM (inactive) | 41.7 µM (inactive) | > 100 µM (inactive) |  | 25 µM (inactive) | 88.3 µM (inactive) | > 100 µM (inactive) | > 100 µM (inactive) | 47.4 µM (inactive) |  |  |  |  | 
6 | CC(=O)OCCOCNC(=S)N/N=C/c1ccc(Br)s1 | > 36.2 µM (inactive) | > 100 µM (inactive) | > 100 µM (inactive) | > 100 µM (inactive) | > 100 µM (inactive) | > 100 | > 100 µM (inactive) | > 100 µM (inactive) | > 100 µM (inactive) | > 100 µM (inactive) | > 100 µM (inactive) | > 76 µM (inactive) | > 100 µM (inactive) | > 81.8 µM (inactive) | > 100 µM (inactive) |  |  |  |  | 
7 | C/C(=N\NC(=S)N1CCN(c2ccccn2)CC1)c1ncccn1 | 0.291 µM (active) | 1.64 µM (inactive) | 0.00984 µM (active) | 0.638 µM (active) | 0.993 µM (active) | 0.02 | 6.05 µM (inactive) | 0.0247 µM (active) | 0.106 µM (active) | 2.56 µM (inactive) | 2.07 µM (inactive) | 0.0594 µM (active) | 0.0569 µM (active) | 0.00272 µM (active) | 1.65 µM (inactive) | 0.0953 µM (active) | 4.67 µM (inactive) | 4.37 µM (inactive) | 0.0214 µM (active) | 2.83 µM (inactive)
8 | Cc1cc(NS(=O)(=O)c2ccc(Nc3c4ccccc4nc4c(C(=O)N5CCN(CCO)CC5)cccc34)cc2)no1 | > 100 µM (inactive) | > 100 µM (inactive) | > 100 µM (inactive) | > 100 µM (inactive) | > 100 µM (inactive) | > 100 | > 100 µM (inactive) | > 100 µM (inactive) | > 100 µM (inactive) | > 100 µM (inactive) | > 100 µM (inactive) | > 100 µM (inactive) | > 100 µM (inactive) | > 100 µM (inactive) | 22.3 µM (inactive) |  |  |  |  | 
9 | CCN(CC)CCOc1ccc(/C=C(\C#N)c2ccc(OCCN(CC)CC)cc2)cc1 | > 51.2 µM (inactive) | 25.6 µM (inactive) | 1.56 µM (inactive) | 14.8 µM (inactive) | 14.7 µM (inactive) | 14.5 | 20.5 µM (inactive) | 13.4 µM (inactive) | 10.6 µM (inactive) | 36.4 µM (inactive) | 16.9 µM (inactive) | 13.4 µM (inactive) | 10.8 µM (inactive) | 19.5 µM (inactive) | 12.4 µM (inactive) |  |  |  |  | 
10 | N#Cc1cc([N+](=O)[O-])ccc1NC(=O)C(=O)Nc1n[nH]c(N)n1 | > 100 µM (inactive) |  | > 100 µM (inactive) | > 100 µM (inactive) | > 100 µM (inactive) | > 100 | > 100 µM (inactive) | > 100 µM (inactive) | > 100 µM (inactive) | > 100 µM (inactive) | > 100 µM (inactive) |  | > 100 µM (inactive) | > 100 µM (inactive) | > 100 µM (inactive) |  |  |  |  | 
11 | CCOC(OC(C)=O)[C@@H]1C=C[C@H](C)N(c2ccc([N+](=O)[O-])cc2)O1 (stereo partly specified) | 16.1 µM (inactive) | 8.79 µM (inactive) | 8.55 µM (inactive) | 2.14 µM (inactive) | 3.45 µM (inactive) | 2.4 | 7.48 µM (inactive) | 14.6 µM (inactive) | 10.7 µM (inactive) | 14.7 µM (inactive) | 27.6 µM (inactive) | 11.4 µM (inactive) | 11.9 µM (inactive) | 2.59 µM (inactive) | 0.759 µM (active) |  |  |  |  | 
12 | Nc1ccccc1C(=O)/C=C/c1ccccc1O | > 100 µM (inactive) | 8.34 µM (inactive) | > 100 µM (inactive) | 72.3 µM (inactive) | 58.5 µM (inactive) |  | 41.5 µM (inactive) | > 100 µM (inactive) | > 100 µM (inactive) | 81.1 µM (inactive) | > 100 µM (inactive) | > 100 µM (inactive) | > 100 µM (inactive) | 47.2 µM (inactive) | 61.1 µM (inactive) |  |  |  |  | 
13 | Cc1cc(-c2ccccc2)nc(Nc2nc3ccccc3o2)n1 | > 100 µM (inactive) |  | > 100 µM (inactive) | > 100 µM (inactive) | > 100 µM (inactive) | > 100 | > 100 µM (inactive) | > 100 µM (inactive) | > 100 µM (inactive) | > 100 µM (inactive) | > 100 µM (inactive) | > 100 µM (inactive) | > 100 µM (inactive) | > 100 µM (inactive) |  |  |  |  |  | 
14 | CS(=O)(=O)c1nc(N)nc2nc[nH]c12 | > 100 µM (inactive) | > 100 µM (inactive) | > 100 µM (inactive) | > 100 µM (inactive) | > 100 µM (inactive) | > 100 | > 100 µM (inactive) | > 100 µM (inactive) | > 100 µM (inactive) | > 100 µM (inactive) | > 100 µM (inactive) | > 100 µM (inactive) | > 100 µM (inactive) | > 100 µM (inactive) | > 100 µM (inactive) |  |  |  |  | 
15 | CC(=O)CC(=O)Nc1ccccc1[N+](=O)[O-] | > 100 µM (inactive) | > 100 µM (inactive) | > 100 µM (inactive) | > 100 µM (inactive) | > 100 µM (inactive) | > 100 | > 100 µM (inactive) | > 100 µM (inactive) | > 100 µM (inactive) | > 100 µM (inactive) | > 100 µM (inactive) | > 100 µM (inactive) | > 100 µM (inactive) | > 100 µM (inactive) | > 100 µM (inactive) |  |  |  |  | 
16 | Cn1c(=O)c2ccc(-c3ccc(Br)cc3)nc2n(C)c1=O | 42.9 µM (inactive) | > 100 µM (inactive) |  | > 100 µM (inactive) | > 100 µM (inactive) | > 100 | 85.3 µM (inactive) | > 100 µM (inactive) | > 100 µM (inactive) | > 100 µM (inactive) | > 100 µM (inactive) | > 100 µM (inactive) | > 100 µM (inactive) | > 100 µM (inactive) |  |  |  |  |  | 
17 | Cc1nc2c(o1)/C(=N\c1ccccc1)c1nc(C)oc1/C2=N/c1ccccc1 | > 10 µM (inactive) | 17.3 µM (inactive) | 25.5 µM (inactive) | 21.6 µM (inactive) | 17.2 µM (inactive) | 23.4 | > 100 µM (inactive) | 18 µM (inactive) | 13.1 µM (inactive) | 21.2 µM (inactive) | 1.29 µM (inactive) | 23.4 µM (inactive) | 33.1 µM (inactive) | 25.5 µM (inactive) | 20.6 µM (inactive) |  |  |  |  | 
